The target of one assay is H1 (Homo sapiens, UniProt P35367). As to the kind of experiment: Radioligand binding affinity assay, H1.
A further assay has as its target D5 (Homo sapiens, UniProt P21918). The experiment in a line: Radioligand binding affinity assay, D5.
A further assay has as its target T1, M1 (Homo sapiens, UniProt P11229).
T1 sequence (P11229 1-460): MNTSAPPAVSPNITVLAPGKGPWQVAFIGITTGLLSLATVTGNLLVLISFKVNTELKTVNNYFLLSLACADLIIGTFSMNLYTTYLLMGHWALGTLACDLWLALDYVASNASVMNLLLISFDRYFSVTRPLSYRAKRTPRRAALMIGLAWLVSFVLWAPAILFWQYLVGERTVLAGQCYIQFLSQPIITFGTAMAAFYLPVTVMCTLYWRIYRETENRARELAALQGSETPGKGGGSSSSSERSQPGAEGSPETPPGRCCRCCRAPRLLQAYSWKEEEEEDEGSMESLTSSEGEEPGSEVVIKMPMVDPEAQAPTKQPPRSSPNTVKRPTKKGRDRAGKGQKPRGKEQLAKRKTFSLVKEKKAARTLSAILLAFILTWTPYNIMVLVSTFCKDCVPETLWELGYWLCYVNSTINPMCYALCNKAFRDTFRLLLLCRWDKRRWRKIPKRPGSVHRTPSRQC
As to the kind of experiment: Radioligand binding affinity assay, M1.

Another assay has as its target 5-HT5A (Homo sapiens, UniProt P47898). The experiment in a line: Radioligand binding affinity assay, 5-HT5A.
Another assay deals with DAT (Homo sapiens, UniProt Q01959). The experiment in a line: Radioligand binding affinity assay, DAT.
Chain of DAT (Q01959 whole entry, species assumed): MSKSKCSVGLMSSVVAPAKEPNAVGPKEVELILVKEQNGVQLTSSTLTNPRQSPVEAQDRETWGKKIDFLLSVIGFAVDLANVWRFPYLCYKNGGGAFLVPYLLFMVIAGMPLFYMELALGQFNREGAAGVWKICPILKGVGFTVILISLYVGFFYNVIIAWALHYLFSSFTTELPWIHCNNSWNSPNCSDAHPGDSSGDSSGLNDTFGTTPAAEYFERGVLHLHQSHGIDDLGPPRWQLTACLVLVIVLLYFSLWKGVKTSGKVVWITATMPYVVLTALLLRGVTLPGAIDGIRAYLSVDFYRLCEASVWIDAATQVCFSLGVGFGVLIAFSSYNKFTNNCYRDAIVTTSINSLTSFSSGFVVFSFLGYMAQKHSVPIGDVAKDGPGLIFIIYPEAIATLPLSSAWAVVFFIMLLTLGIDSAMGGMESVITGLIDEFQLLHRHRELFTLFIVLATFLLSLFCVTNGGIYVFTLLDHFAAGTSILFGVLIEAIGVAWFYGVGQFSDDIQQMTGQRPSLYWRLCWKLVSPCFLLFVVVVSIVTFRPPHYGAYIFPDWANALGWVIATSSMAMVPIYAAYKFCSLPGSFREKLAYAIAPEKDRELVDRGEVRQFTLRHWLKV
Another assay deals with H2 (Homo sapiens, UniProt P25021). As to the kind of experiment: Radioligand binding affinity assay, H2.
Chain of H2 (P25021 whole entry): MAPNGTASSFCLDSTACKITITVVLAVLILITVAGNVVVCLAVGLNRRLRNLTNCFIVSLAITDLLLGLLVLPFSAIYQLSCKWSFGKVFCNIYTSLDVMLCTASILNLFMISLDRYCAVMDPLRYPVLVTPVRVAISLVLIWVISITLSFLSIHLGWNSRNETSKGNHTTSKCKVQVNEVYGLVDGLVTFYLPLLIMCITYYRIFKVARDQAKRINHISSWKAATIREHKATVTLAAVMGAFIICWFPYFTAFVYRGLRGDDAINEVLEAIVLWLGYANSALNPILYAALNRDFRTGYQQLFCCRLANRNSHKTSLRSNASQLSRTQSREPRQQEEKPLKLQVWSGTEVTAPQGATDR
The target of assay [1] is T2, D1 (Homo sapiens, UniProt P21728). As to the kind of experiment: BRET β-arrestin2 recruitment assay. Format: cell-based. As to conditions: for activity in β-arrestin2 recruitment (in words): BRET; for Emax: read-out: β-arrestin2 EMAX.
The target in a further assay is 5-HT2A (Homo sapiens, UniProt P28223). The experiment in a line: Radioligand binding affinity assay, 5-HT2A.
In another assay the target is KOR (Homo sapiens, UniProt P41145). As to the kind of experiment: Radioligand binding affinity assay, KOR.
Chain of KOR (P41145 whole entry): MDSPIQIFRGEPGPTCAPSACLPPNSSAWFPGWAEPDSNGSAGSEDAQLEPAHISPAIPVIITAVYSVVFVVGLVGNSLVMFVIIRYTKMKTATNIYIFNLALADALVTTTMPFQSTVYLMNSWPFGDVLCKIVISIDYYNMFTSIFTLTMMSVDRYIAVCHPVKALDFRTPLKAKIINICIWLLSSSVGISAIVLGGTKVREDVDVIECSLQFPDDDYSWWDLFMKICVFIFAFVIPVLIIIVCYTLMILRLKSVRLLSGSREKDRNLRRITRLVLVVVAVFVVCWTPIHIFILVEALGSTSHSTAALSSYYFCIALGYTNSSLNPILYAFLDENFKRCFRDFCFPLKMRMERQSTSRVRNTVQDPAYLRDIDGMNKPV
Another assay deals with D3 (Homo sapiens, UniProt P35462). The experiment in a line: Radioligand binding affinity assay, D3.
Chain of D3 (P35462 whole entry): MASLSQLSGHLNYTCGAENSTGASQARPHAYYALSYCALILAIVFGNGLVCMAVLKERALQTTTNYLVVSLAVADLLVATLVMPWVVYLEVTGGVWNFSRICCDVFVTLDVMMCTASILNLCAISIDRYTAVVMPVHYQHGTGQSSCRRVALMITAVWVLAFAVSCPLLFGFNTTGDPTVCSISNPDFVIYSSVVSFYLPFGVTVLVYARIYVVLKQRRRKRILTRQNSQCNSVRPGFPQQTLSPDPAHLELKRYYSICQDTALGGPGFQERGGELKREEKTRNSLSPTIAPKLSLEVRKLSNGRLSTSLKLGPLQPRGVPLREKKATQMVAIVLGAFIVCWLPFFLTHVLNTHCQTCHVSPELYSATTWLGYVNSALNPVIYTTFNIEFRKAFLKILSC
The target of a further assay is T3, 5-HT3 (Homo sapiens, UniProt P46098).
T3 sequence (P46098 24-478): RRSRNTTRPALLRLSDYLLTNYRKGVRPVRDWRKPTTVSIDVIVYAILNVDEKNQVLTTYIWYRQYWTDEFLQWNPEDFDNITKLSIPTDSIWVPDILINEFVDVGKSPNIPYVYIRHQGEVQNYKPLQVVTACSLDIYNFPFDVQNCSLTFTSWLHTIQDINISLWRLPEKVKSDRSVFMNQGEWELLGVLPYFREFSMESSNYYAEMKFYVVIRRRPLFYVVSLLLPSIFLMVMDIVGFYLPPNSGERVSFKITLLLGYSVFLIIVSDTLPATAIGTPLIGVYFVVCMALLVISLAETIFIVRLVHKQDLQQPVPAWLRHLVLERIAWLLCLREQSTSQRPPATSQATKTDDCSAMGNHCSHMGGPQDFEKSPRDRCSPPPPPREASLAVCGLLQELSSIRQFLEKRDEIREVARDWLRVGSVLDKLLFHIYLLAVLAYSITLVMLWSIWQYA
The experiment in a line: Radioligand binding affinity assay, 5-HT3.

Another assay deals with 5-HT6 (Homo sapiens, UniProt P50406). As to the kind of experiment: Radioligand binding affinity assay, 5-HT6.
Chain of 5-HT6 (P50406 whole entry, species assumed): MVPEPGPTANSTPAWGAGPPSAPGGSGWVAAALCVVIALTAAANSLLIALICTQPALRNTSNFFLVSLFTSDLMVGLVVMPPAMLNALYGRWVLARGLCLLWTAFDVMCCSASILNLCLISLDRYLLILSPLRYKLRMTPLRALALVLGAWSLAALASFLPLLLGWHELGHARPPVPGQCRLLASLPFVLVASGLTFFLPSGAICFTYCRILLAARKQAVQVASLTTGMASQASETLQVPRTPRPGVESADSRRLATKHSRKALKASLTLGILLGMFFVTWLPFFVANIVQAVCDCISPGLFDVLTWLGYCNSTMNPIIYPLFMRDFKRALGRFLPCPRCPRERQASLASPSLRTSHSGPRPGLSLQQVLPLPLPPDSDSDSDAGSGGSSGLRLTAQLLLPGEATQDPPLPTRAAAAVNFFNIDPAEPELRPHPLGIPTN
The next assay has as its target SERT (Homo sapiens, UniProt P31645). As to the kind of experiment: Radioligand binding affinity assay, SERT.
For assay [2], the target named is T2, D1. As to the kind of experiment: Radioligand binding affinity assay, D1.
Another assay concerns the target 5-HT1D (Homo sapiens, UniProt P28221). As to the kind of experiment: Radioligand binding affinity assay, 5-HT1D.
A further assay has as its target T4, D4 (Homo sapiens, UniProt P21917).
T4 sequence (P21917 1-419): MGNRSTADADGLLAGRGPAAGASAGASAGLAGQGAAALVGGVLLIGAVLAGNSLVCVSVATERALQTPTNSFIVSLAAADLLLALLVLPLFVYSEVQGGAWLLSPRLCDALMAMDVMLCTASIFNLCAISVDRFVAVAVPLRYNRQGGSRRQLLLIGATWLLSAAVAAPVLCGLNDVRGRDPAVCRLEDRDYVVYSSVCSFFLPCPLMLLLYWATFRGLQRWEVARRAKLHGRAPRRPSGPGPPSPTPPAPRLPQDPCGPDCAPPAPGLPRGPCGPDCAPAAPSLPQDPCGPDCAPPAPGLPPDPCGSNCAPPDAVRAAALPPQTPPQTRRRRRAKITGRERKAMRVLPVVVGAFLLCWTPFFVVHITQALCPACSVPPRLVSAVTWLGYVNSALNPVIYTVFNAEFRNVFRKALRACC
The experiment in a line: Radioligand binding affinity assay, D4.

Another assay concerns the target 5-HT1B (Homo sapiens, UniProt P28222). As to the kind of experiment: Radioligand binding affinity assay, 5-HT1B.
The next assay deals with T5, 5-HT1A (Homo sapiens, UniProt P08908).
T5 sequence (P08908 1-422): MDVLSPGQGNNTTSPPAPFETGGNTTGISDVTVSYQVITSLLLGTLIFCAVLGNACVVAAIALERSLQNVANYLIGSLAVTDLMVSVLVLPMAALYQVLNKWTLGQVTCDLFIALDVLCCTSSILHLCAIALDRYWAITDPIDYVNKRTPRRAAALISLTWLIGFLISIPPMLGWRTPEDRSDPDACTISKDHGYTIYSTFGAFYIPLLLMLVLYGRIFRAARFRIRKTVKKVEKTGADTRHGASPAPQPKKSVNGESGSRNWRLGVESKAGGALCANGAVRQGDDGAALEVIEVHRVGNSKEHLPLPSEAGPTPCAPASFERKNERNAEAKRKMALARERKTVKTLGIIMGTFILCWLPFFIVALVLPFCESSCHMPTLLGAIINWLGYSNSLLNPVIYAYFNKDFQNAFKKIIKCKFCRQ
The experiment in a line: Radioligand binding affinity assay, 5-HT1A.

The next assay deals with 5-HT1E (Homo sapiens, UniProt P28566). As to the kind of experiment: Radioligand binding affinity assay, 5-HT1E.
The target in another assay is 5-HT2B (Homo sapiens, UniProt P41595). As to the kind of experiment: Radioligand binding affinity assay, 5-HT2B.
Chain of 5-HT2B (P41595 whole entry, species assumed): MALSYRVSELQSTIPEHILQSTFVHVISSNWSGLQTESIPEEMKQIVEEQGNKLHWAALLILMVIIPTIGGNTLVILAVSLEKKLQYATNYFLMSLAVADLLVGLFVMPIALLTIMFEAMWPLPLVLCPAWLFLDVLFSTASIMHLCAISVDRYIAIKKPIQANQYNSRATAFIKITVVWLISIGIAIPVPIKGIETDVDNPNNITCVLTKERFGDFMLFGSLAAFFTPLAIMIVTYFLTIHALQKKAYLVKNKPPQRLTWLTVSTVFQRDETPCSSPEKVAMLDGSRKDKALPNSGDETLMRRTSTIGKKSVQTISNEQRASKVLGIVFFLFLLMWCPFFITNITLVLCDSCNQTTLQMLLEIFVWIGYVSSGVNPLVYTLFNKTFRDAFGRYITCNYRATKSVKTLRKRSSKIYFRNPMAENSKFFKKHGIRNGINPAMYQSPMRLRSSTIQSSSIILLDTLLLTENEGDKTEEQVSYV

The record followed here is paper PMC6785188 (ACS chemical neuroscience, 2019).

Chain of 5-HT5A (P47898 whole entry, species assumed): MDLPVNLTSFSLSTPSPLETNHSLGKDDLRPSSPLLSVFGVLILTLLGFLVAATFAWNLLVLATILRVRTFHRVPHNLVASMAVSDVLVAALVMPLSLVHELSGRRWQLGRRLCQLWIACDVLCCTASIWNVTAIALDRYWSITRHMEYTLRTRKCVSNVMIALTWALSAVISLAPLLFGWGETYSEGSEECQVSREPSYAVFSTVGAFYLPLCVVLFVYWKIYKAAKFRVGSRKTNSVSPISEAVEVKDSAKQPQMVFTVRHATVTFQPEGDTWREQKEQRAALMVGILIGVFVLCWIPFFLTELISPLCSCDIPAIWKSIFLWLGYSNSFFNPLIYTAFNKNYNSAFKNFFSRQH
Chain of SERT (P31645 whole entry, species assumed): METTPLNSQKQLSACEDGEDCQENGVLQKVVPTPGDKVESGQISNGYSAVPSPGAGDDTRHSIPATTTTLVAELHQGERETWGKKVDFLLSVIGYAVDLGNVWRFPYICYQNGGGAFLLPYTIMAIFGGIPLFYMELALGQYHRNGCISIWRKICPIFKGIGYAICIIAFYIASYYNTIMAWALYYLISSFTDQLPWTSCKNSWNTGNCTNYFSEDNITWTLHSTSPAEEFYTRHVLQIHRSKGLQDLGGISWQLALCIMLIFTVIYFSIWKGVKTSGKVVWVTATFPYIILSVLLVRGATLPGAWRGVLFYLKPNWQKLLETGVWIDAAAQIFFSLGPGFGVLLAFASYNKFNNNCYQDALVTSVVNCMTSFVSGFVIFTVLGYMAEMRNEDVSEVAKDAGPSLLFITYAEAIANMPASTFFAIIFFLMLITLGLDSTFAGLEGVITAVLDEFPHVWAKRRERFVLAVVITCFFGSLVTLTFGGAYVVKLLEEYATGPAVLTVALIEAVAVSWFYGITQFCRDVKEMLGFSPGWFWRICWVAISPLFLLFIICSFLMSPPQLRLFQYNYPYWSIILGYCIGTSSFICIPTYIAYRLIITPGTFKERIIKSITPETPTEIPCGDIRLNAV
Chain of H1 (P35367 whole entry): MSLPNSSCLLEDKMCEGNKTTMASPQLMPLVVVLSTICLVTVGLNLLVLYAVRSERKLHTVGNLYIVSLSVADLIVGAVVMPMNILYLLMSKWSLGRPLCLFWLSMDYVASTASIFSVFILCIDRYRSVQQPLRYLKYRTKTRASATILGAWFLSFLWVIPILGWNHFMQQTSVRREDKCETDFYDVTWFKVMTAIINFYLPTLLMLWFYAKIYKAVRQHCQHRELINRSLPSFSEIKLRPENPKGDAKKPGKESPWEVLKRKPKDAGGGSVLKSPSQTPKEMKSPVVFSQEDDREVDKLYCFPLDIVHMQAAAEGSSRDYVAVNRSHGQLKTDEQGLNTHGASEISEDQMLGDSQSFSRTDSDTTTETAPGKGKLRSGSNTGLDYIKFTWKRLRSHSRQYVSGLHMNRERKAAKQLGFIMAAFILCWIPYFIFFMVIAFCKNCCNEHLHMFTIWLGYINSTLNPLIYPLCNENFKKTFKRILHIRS
Chain of 5-HT1B (P28222 whole entry, species assumed): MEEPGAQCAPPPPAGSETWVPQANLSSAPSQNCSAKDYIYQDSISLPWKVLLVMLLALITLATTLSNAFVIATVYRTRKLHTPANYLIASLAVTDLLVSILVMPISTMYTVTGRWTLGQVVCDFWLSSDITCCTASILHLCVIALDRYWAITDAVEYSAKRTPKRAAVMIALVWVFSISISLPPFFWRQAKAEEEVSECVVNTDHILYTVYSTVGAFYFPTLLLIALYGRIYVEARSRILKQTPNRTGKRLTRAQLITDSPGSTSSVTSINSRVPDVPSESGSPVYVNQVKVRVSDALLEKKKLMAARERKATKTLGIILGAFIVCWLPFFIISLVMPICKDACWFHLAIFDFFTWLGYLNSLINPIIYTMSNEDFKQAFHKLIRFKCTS
Chain of 5-HT1D (P28221 whole entry, species assumed): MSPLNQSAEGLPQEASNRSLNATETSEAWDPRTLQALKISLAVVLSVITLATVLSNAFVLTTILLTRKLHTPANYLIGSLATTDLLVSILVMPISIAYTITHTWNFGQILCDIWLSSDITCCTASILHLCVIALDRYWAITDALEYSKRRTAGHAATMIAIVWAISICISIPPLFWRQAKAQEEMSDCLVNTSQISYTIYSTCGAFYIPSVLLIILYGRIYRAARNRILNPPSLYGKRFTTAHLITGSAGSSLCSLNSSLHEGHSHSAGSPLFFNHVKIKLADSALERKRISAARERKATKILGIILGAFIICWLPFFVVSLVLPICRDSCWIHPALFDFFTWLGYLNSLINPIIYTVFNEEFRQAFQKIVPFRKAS

As a reminder, the Ki is a measure of affinity in units of concentration, obtained from inhibition or displacement. A high value points to weaker binding. With `COc1ccnc(Oc2ccc(-c3c(C)c(=O)[nH]c(=O)n3C)c(C)c2)c1C(F)(F)F` [Compound 35, 6-(4-((4-Methoxy-3-(trifluoromethyl)pyridin-2-yl)oxy)-2-methylphenyl)-1,5-dimethylpyrimidine-2,4(1H,3H)-dione], the inhibition constant (Ki) on H1 was > 10 µM; on D5 it was 171 nM; on M1, > 10 µM; on 5-HT5A, > 10 µM; at DAT, > 10 µM; on H2, > 10 µM. The Ki at 5-HT2A, on KOR, on D3, on 5-HT3, at 5-HT6 and on SERT was > 10 µM each time. Also, the inhibition constant (Ki) at D1 [2] was 70 nM; at 5-HT1D, > 10 µM; on D4, > 10 µM; on 5-HT1B it was > 10 µM; at 5-HT1A, > 10 µM; on 5-HT1E, > 10 µM. Further, on 5-HT2B, the Ki was > 10 µM. At D1 [1], the “activity in β-arrestin2 recruitment (in words)” value (“activity” below) was “no activity”.
Regarding `Cc1cc(Oc2nccc3c2ccn3C)ccc1-c1c(C)c(=O)[nH]c(=O)n1C` [Compound 37, 1,5-Dimethyl-6-(2-methyl-4-((1-methyl-1H-pyrrolo[3,2-c]pyridin-4-yl)oxy)phenyl)pyrimidine-2,4(1H,3H)-dione], the Ki is > 10 µM at H1; 90 nM on D5; > 10 µM on M1; > 10 µM on 5-HT5A; > 10 µM at DAT; > 10 µM on H2. The inhibitory constant (Ki) at 5-HT2A, on KOR, on D3, at 5-HT3, on 5-HT6 and at SERT was > 10 µM in each case. Besides, the Ki at D1 [2] was 14 nM; at 5-HT1D, > 10 µM; at D4 it was > 10 µM; on 5-HT1B it was > 10 µM; at 5-HT1A, > 10 µM; at 5-HT1E it was > 10 µM. On 5-HT2B, the Ki is > 10 µM. On D1 [1], the “activity” value is given as “no activity”.
A word on the EC50: it is the concentration needed to bring the measured effect to its halfway point. A word on the Emax: it is the maximal effect, on the per cent scale that the assay sets. Consider `Cc1cc(Oc2nccc3occc23)ccc1-c1c(C)c(=O)[nH]c(=O)n1C1CC1` [Compound 18, 1-Cyclopropyl-6-(4-(furo[3,2-c]pyridin-4-yloxy)-2-methylphenyl)-5-methylpyrimidine-2,4(1H,3H)-dione], for which the Ki was > 10 µM at H1; 15 nM at D5; > 10 µM at M1; > 10 µM on 5-HT5A; > 10 µM at DAT; > 10 µM at H2. Besides, the inhibition constant Ki on 5-HT2A, on KOR, on D3, at 5-HT3, at 5-HT6 and on SERT was > 10 µM throughout. For the same compound, the Ki at D1 [2] is 10 nM; at 5-HT1D, > 10 µM; on D4, > 10 µM; at 5-HT1B it was > 10 µM; on 5-HT1A, > 10 µM; at 5-HT1E, > 10 µM. In addition, the inhibition constant (Ki) at 5-HT2B is > 10 µM. A half-maximal effect on D1 [1] (EC50) was put at 7.4 nM. Also, at D1 [1], the Emax stood at 74%.
Turning to `Cc1cc(Oc2nccc3ccsc23)ccc1-c1c(C)c(=O)[nH]c(=O)n1C` [Compound 40, 1,5-Dimethyl-6-(2-methyl-4-(thieno[2,3-c]pyridin-7-yloxy)-phenyl)pyrimidine-2,4(1H,3H)-dione], the Ki at H1 is > 10 µM; on D5 it was 53 nM; on M1, > 10 µM; at 5-HT5A, > 10 µM; on DAT it was > 10 µM; on H2, > 10 µM. Also, the Ki at 5-HT2A, on KOR, at D3, at 5-HT3, on 5-HT6 and at SERT was > 10 µM in each case. Moreover, the Ki at D1 [2] was 5.1 nM; on 5-HT1D it was > 10 µM; on D4, > 10 µM; at 5-HT1B it was > 10 µM; on 5-HT1A, > 10 µM; at 5-HT1E it was > 10 µM. The Ki at 5-HT2B is > 10 µM. Besides, the half-maximal effective concentration (EC50) on D1 [1] was determined as 3.5 nM. On D1 [1], the Emax was found to be 65%.
For `Cc1cc2c(Oc3ccc(-c4c(C)c(=O)[nH]c(=O)n4C)c(C)c3)nccc2o1` [Compound 36, 1,5-Dimethyl-6-(2-methyl-4-((2-methylfuro[3,2-c]pyridin-4-yl)-oxy)phenyl)pyrimidine-2,4(1H,3H)-dione], the inhibition constant (Ki) at H1 is > 10 µM; at D5, 185 nM; at M1 it was > 10 µM; at 5-HT5A, > 10 µM; at DAT, > 10 µM; at H2 it was > 10 µM. Further, the Ki on 5-HT2A, on KOR, on D3, at 5-HT3, on 5-HT6 and on SERT was > 10 µM throughout. Moreover, the Ki is 93 nM on D1 [2]; > 10 µM on 5-HT1D; > 10 µM on D4; > 10 µM on 5-HT1B; > 10 µM at 5-HT1A; > 10 µM at 5-HT1E. Besides, the Ki at 5-HT2B was > 10 µM. The “activity” value at D1 [1] is “no activity”.
